Data as given in patent US7977308B2, “Lys-Thr dipeptides and their use” (Sederma, priority 2005, dated 2011).
Where no end group is shown, it is not given here. The star is where a group is joined. Palmitoyl = CCCCCCCCCCCCCCCC(=O)*

What was measured:
Type in all cases: cell-based
[1] = tested on: Normal Human Dermal Fibroblasts (NHDF); experiment: Quantification of Collagen I synthesis using human dermal fibroblasts (direct ELISA); settings: 3 days of incubation
Procedure: (§1) Products were tested from 0.5 to 4 ppm depending of their solubility or toxicity. Pal-KTTKS was tested from 2 to 8 ppm.
(§2) Pal KTTKS (Lys-Thr-Thr-Lys-Ser), Pal KT (Lys-Thr), Pal KS (Lys-Ser) were prepared in Sederma Peptide Synthesis Laboratory. TGF-betal: 10^E-6%, was the positive control for collagen I and Fibronectin studies.
(§3) For this study, di-peptides were linked to the Palmitoic acid and were compared to Pal-KTTKS.
(§4) Normal Human Dermal Fibroblasts (NHDF) were cultivated in culture plates in an appropriate culture medium (i.e. complete DMEM with fetal calf serum). After cell anchorage, cell layers (n=5 replicates) were rinsed with saline buffer and contact with molecules to be tested were performed in a complete DMEM without fetal calf serum. This medium contained ascorbate (sodium salt) and beta-aminopropionitrile, monofumarate. Two independent experimentations were performed for each di-peptide.
(§5) After 3 days of incubation, supernatants were collected and frozen. Survival was estimated on cell layer using the fluorescent probe Hoescht 33258. Collagen I was estimated using an original direct ELISA method. Fibronectin was estimated using ELISA commercial kit.
(§6) Criteria: TGF-b1 should be promoter of Collagen I and Fibronectin synthesis. Statistical analysis were performed on Collagen I data (n=5/assay) or Fibronectin data (n=5/assay). Results obtained with molecules were compared to negative control. All data were ng/10^E6 cells. A Student t test for non paired values was used; significativity was obtained if p<0.05 or p<0.01.
(§7) The percents in the tables above were calculated from ng/10E6 data and compared to the negative control.

[2] = tested on: Normal Human Dermal Fibroblasts (NHDF); experiment: Survival estimated on cell layer using fluorescent probe Hoescht 33258; settings: for cell proliferation / number of cells: after 3 days of culture
Procedure: as §4, §5

[3] = tested on: Normal Human Dermal Fibroblasts (NHDF); experiment: Quantification of Fibronectin synthesis using human dermal fibroblasts (ELISA commercial kit); settings: 3 days of incubation
Procedure: as §1, §2, §3, §4, §5, §6, §7

Pal-Lys-Thr-OH [Pal KT]
COLLAGEN I Mean, percent of negative control ([1]; 1 ppm): +21%

CCCCCCCCCCCCCCCC(=O)N[C@@H](CCCCN)C(=O)N[C@@H](CO)C(=O)O [Pal KS]
toxicity on the cell layer ([2]; 4 ppm): seemed to induce a light toxicity

Pal KTTKS: Palmitoyl Lys-Thr-Thr-Lys-Ser, considered as a benchmark (Palmitoyl-KTTKS)
COLLAGEN I Mean, percent of negative control ([1]; 2 ppm): +5% | COLLAGEN I Mean, percent of negative control ([1]; 4 ppm): +49% | COLLAGEN I Mean, percent of negative control ([1]; 4 ppm, listed as Pal-KTTKS): +49% | COLLAGEN I Mean, percent of negative control ([1]; 6 ppm): +111% | COLLAGEN I Mean, percent of negative control ([1]; 6 ppm, listed as Pal-KTTKS): +111% | COLLAGEN I Mean, percent of negative control ([1]; 8 ppm): +144% | COLLAGEN I Mean, percent of negative control ([1]; 8 ppm, listed as Pal-KTTKS): +144% | cell proliferation / number of cells [2]: unchanged | FIBRONECTIN Mean, percent of negative control ([3]; 2 ppm): +20% | FIBRONECTIN Mean, percent of negative control ([3]; 2 ppm, listed as Pal KTRKS): probably active

TGF-beta: positive control for collagen I and Fibronectin studies
COLLAGEN I Mean, percent of negative control ([1]; 10 ppb): +95% | COLLAGEN I Mean, percent of negative control ([1]; 10 ppb, listed as TGF-b1): 95% | cell proliferation / number of cells [2]: significant increase of cell proliferation | FIBRONECTIN Mean, percent of negative control ([3]; 10 ppb): +69% | FIBRONECTIN Mean, percent of negative control ([3]; 10 ppb, listed as TGF-b1): 69%
